Source: US7834213B2, “Colorant compound and method of manufacturing the same as well as blue resist composition for use in color filter containing the same” (Canon Kabushiki Kaisha, priority 2005, dated 2010)

Experiments:
[1] = Evaluation of spectral characteristics (UV visible absorption spectrum in cyclohexanone); format: physicochemical; conditions: for absorbance ratio: absorbance at largest absorption wavelength (500 to 650 nm) / absorbance at smallest absorption wavelength (400 to 500 nm), in cyclohexanone, room temperature; for λmax [nm]: absorption peak wavelength, dissolved in cyclohexanone, absorbance regulated to 2.0, room temperature
Method: The colorant compounds represented by the formula (10) was dissolved in cyclohexanone and regulated so as to show an absorbance of 2.0. […] The absorption peak wavelength (λmax [nm]) was determined from the spectrum obtained by the observation. The spectral characteristics of the colorant compound were evaluated by the absorbance ratio of the largest absorption wavelength of the spectrum in the range of 500 to 650 nm to the smallest absorption wavelength of the spectrum in the range of 400 to 500 nm (the absorbance at the largest absorption wavelength/the absorbance at the smallest absorption wavelength).
While the lightness can be evaluated by means of the Y value of the XYZ standard […] system established by CIE (Commission Internationale de l'Eclairage), the lightness was evaluated by means of the absorbance ratio in this example because the Y value can vary remarkably when the hue is shifted slightly.

[2] = Evaluation of solubility of colorant compounds to cyclohexanone; format: physicochemical; conditions: rank A/B/C

SMILES | absorbance ratio [1] | λmax [nm] [1] [nm] | solubility [2]
CCCCC(CC)CN(CC(CC)CCCC)S(=O)(=O)c1cccc(CN(CC)c2ccc(C(=C3C=CC(=[N+](CC)Cc4cccc(S(=O)(=O)N(CC(CC)CCCC)CC(CC)CCCC)c4)C=C3)c3ccccc3S(=O)(=O)[O-])cc2)c1 (centres unmarked) [compound (10)] | 433 | 619 | A (The solubility to cyclohexanone is not lower than 10%.)
CCCCNc1ccc(NCCCC)c2c1C(=O)c1ccccc1C2=O [compound (28), C. I. Solvent Blue 35, reference compound] | 77 | 620 | –
